In the NIST ThermoML archive (doi:10.1016/j.jct.2019.02.011):

Assay: xn = mol fraction of the nth substance listed
Conditions: Liquid, Vibrating tube method

COC(=O)OC [dimethyl carbonate] + CCCO
Conditions | mass density [kg/m3]
293.15 K, 35000 kPa, x1 = 0.9489 | 1085.31
293.15 K, 35000 kPa, x1 = 0.9743 | 1091.8
293.15 K, 35000 kPa, x1 = 1 | 1098.34
293.15 K, 40000 kPa, x1 = 0.0273 | 837.07
293.15 K, 40000 kPa, x1 = 0.0506 | 843.83
293.15 K, 40000 kPa, x1 = 0.0755 | 851.14
293.15 K, 40000 kPa, x1 = 0.1007 | 858.39
293.15 K, 40000 kPa, x1 = 0.1495 | 872.48
293.15 K, 40000 kPa, x1 = 0.2003 | 887.03
293.15 K, 40000 kPa, x1 = 0.2529 | 902.04
293.15 K, 40000 kPa, x1 = 0.2993 | 915.09
293.15 K, 40000 kPa, x1 = 0.3497 | 929.19
293.15 K, 40000 kPa, x1 = 0.401 | 943.36
293.15 K, 40000 kPa, x1 = 0.4509 | 957.05
293.15 K, 40000 kPa, x1 = 0.5002 | 970.51
293.15 K, 40000 kPa, x1 = 0.5498 | 983.88
293.15 K, 40000 kPa, x1 = 0.5996 | 997.26
293.15 K, 40000 kPa, x1 = 0.6499 | 1010.66
293.15 K, 40000 kPa, x1 = 0.7006 | 1024.12
293.15 K, 40000 kPa, x1 = 0.7471 | 1036.36
293.15 K, 40000 kPa, x1 = 0.7989 | 1049.84
293.15 K, 40000 kPa, x1 = 0.8491 | 1063.05
293.15 K, 40000 kPa, x1 = 0.8993 | 1076.12
293.15 K, 40000 kPa, x1 = 0.9249 | 1082.7
293.15 K, 40000 kPa, x1 = 0.9489 | 1088.8
293.15 K, 40000 kPa, x1 = 0.9743 | 1095.29
293.15 K, 40000 kPa, x1 = 1 | 1101.84
298.15 K, 100 kPa, x1 = 0.0273 | 807.06
298.15 K, 100 kPa, x1 = 0.0506 | 813.55
298.15 K, 100 kPa, x1 = 0.0755 | 820.52
298.15 K, 100 kPa, x1 = 0.1007 | 827.5
298.15 K, 100 kPa, x1 = 0.1495 | 841.12
298.15 K, 100 kPa, x1 = 0.2003 | 855.15
298.15 K, 100 kPa, x1 = 0.2529 | 869.54
298.15 K, 100 kPa, x1 = 0.2993 | 882.18
298.15 K, 100 kPa, x1 = 0.3497 | 895.71
298.15 K, 100 kPa, x1 = 0.401 | 909.36
298.15 K, 100 kPa, x1 = 0.4509 | 922.58
298.15 K, 100 kPa, x1 = 0.5002 | 935.57
298.15 K, 100 kPa, x1 = 0.5498 | 948.57
298.15 K, 100 kPa, x1 = 0.5996 | 961.54
298.15 K, 100 kPa, x1 = 0.6499 | 974.52
298.15 K, 100 kPa, x1 = 0.7006 | 987.56
298.15 K, 100 kPa, x1 = 0.7471 | 999.38
298.15 K, 100 kPa, x1 = 0.7989 | 1012.54
298.15 K, 100 kPa, x1 = 0.8491 | 1025.27
298.15 K, 100 kPa, x1 = 0.8993 | 1038.07
298.15 K, 100 kPa, x1 = 0.9249 | 1044.52
298.15 K, 100 kPa, x1 = 0.9489 | 1050.53
298.15 K, 100 kPa, x1 = 0.9743 | 1056.89
298.15 K, 100 kPa, x1 = 1 | 1063.45
298.15 K, 5000 kPa, x1 = 0.0273 | 810.99
298.15 K, 5000 kPa, x1 = 0.0506 | 817.52
298.15 K, 5000 kPa, x1 = 0.0755 | 824.54
298.15 K, 5000 kPa, x1 = 0.1007 | 831.52
298.15 K, 5000 kPa, x1 = 0.1495 | 845.19
298.15 K, 5000 kPa, x1 = 0.2003 | 859.27
298.15 K, 5000 kPa, x1 = 0.2529 | 873.66
298.15 K, 5000 kPa, x1 = 0.2993 | 886.34
298.15 K, 5000 kPa, x1 = 0.3497 | 899.93
298.15 K, 5000 kPa, x1 = 0.401 | 913.63
298.15 K, 5000 kPa, x1 = 0.4509 | 926.89
298.15 K, 5000 kPa, x1 = 0.5002 | 939.93
298.15 K, 5000 kPa, x1 = 0.5498 | 952.93
298.15 K, 5000 kPa, x1 = 0.5996 | 965.95
298.15 K, 5000 kPa, x1 = 0.6499 | 978.92
298.15 K, 5000 kPa, x1 = 0.7006 | 992.01
298.15 K, 5000 kPa, x1 = 0.7471 | 1003.88
298.15 K, 5000 kPa, x1 = 0.7989 | 1017.09
298.15 K, 5000 kPa, x1 = 0.8491 | 1029.83
298.15 K, 5000 kPa, x1 = 0.8993 | 1042.62
298.15 K, 5000 kPa, x1 = 0.9249 | 1049.07
298.15 K, 5000 kPa, x1 = 0.9489 | 1055.08
298.15 K, 5000 kPa, x1 = 0.9743 | 1061.44
298.15 K, 5000 kPa, x1 = 1 | 1068
298.15 K, 10000 kPa, x1 = 0.0273 | 814.7
298.15 K, 10000 kPa, x1 = 0.0506 | 821.28
298.15 K, 10000 kPa, x1 = 0.0755 | 828.31
298.15 K, 10000 kPa, x1 = 0.1007 | 835.34
298.15 K, 10000 kPa, x1 = 0.1495 | 849.06
298.15 K, 10000 kPa, x1 = 0.2003 | 863.19
298.15 K, 10000 kPa, x1 = 0.2529 | 877.64
298.15 K, 10000 kPa, x1 = 0.2993 | 890.38
298.15 K, 10000 kPa, x1 = 0.3497 | 904.02
298.15 K, 10000 kPa, x1 = 0.401 | 917.77
298.15 K, 10000 kPa, x1 = 0.4509 | 931.09
298.15 K, 10000 kPa, x1 = 0.5002 | 944.14
298.15 K, 10000 kPa, x1 = 0.5498 | 957.19
298.15 K, 10000 kPa, x1 = 0.5996 | 970.21
298.15 K, 10000 kPa, x1 = 0.6499 | 983.24
298.15 K, 10000 kPa, x1 = 0.7006 | 996.39
298.15 K, 10000 kPa, x1 = 0.7471 | 1008.26
298.15 K, 10000 kPa, x1 = 0.7989 | 1021.53
298.15 K, 10000 kPa, x1 = 0.8491 | 1034.32
298.15 K, 10000 kPa, x1 = 0.8993 | 1047.12
298.15 K, 10000 kPa, x1 = 0.9249 | 1053.57
298.15 K, 10000 kPa, x1 = 0.9489 | 1059.58
298.15 K, 10000 kPa, x1 = 0.9743 | 1065.95
298.15 K, 10000 kPa, x1 = 1 | 1072.51
298.15 K, 15000 kPa, x1 = 0.0273 | 818.11
298.15 K, 15000 kPa, x1 = 0.0506 | 824.74
298.15 K, 15000 kPa, x1 = 0.0755 | 831.81
298.15 K, 15000 kPa, x1 = 0.1007 | 838.84
298.15 K, 15000 kPa, x1 = 0.1495 | 852.61
298.15 K, 15000 kPa, x1 = 0.2003 | 866.8
298.15 K, 15000 kPa, x1 = 0.2529 | 881.29
298.15 K, 15000 kPa, x1 = 0.2993 | 894.08
298.15 K, 15000 kPa, x1 = 0.3497 | 907.77
298.15 K, 15000 kPa, x1 = 0.401 | 921.57
298.15 K, 15000 kPa, x1 = 0.4509 | 934.95
298.15 K, 15000 kPa, x1 = 0.5002 | 948.04
298.15 K, 15000 kPa, x1 = 0.5498 | 961.1
298.15 K, 15000 kPa, x1 = 0.5996 | 974.17
298.15 K, 15000 kPa, x1 = 0.6499 | 987.25
298.15 K, 15000 kPa, x1 = 0.7006 | 1000.44
298.15 K, 15000 kPa, x1 = 0.7471 | 1012.37
298.15 K, 15000 kPa, x1 = 0.7989 | 1025.64
298.15 K, 15000 kPa, x1 = 0.8491 | 1038.48
298.15 K, 15000 kPa, x1 = 0.8993 | 1051.28
298.15 K, 15000 kPa, x1 = 0.9249 | 1057.78
298.15 K, 15000 kPa, x1 = 0.9489 | 1063.79
298.15 K, 15000 kPa, x1 = 0.9743 | 1070.16
298.15 K, 15000 kPa, x1 = 1 | 1076.72
298.15 K, 20000 kPa, x1 = 0.0273 | 821.44
298.15 K, 20000 kPa, x1 = 0.0506 | 828.12
298.15 K, 20000 kPa, x1 = 0.0755 | 835.25
298.15 K, 20000 kPa, x1 = 0.1007 | 842.29
298.15 K, 20000 kPa, x1 = 0.1495 | 856.13
298.15 K, 20000 kPa, x1 = 0.2003 | 870.37
298.15 K, 20000 kPa, x1 = 0.2529 | 884.88
298.15 K, 20000 kPa, x1 = 0.2993 | 897.73
298.15 K, 20000 kPa, x1 = 0.3497 | 911.48
298.15 K, 20000 kPa, x1 = 0.401 | 925.35
298.15 K, 20000 kPa, x1 = 0.4509 | 938.74
298.15 K, 20000 kPa, x1 = 0.5002 | 951.89
